“Also recorded” adds a separate entry of the source.
T1: CKIα (Rattus norvegicus, UniProt P97633)
T1 construct: made in house; host or cells: HEK 293 cells
T1 sequence (P97633 1-325): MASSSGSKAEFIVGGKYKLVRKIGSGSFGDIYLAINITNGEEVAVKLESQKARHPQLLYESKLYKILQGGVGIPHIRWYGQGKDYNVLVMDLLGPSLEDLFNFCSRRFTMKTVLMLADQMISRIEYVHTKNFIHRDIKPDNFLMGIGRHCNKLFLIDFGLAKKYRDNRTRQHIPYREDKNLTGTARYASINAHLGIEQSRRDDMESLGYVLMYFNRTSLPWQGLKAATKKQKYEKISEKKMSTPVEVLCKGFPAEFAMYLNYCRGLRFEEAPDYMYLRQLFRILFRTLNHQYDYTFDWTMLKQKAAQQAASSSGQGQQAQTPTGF

T2: Star-PAP complex (Homo sapiens, UniProt Q9H6E5, D66G)
T2 construct: made in house; host or cells: HEK-293 cells stably expressing FLAG-Star-PAP, treated with tBHQ before purification
T2 sequence (Q9H6E5 1-874 D66G): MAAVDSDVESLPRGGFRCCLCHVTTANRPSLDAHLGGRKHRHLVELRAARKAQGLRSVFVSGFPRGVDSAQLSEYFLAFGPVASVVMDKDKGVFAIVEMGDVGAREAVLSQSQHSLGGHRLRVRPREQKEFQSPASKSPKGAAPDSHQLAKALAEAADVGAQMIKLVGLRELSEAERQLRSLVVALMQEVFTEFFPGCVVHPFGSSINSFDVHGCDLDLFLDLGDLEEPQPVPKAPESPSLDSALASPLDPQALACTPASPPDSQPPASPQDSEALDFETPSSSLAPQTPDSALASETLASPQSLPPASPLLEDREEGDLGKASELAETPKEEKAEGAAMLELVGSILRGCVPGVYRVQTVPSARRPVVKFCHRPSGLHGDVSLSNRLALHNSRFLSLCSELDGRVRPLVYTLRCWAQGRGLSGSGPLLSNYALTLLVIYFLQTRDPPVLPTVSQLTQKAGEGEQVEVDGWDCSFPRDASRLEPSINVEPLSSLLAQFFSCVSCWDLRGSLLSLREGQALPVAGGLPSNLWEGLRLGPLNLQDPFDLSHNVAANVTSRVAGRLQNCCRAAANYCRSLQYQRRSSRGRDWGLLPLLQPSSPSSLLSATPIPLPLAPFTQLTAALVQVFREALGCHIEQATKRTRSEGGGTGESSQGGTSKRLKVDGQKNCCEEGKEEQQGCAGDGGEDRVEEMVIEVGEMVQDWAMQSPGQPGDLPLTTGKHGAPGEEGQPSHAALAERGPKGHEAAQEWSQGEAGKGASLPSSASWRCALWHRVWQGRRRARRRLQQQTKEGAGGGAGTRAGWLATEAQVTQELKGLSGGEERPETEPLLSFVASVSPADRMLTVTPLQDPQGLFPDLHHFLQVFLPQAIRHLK

T3: Star-PAP (Homo sapiens, UniProt Q9H6E5, D66G)
T3 construct: full length His-Star-PAP was purified over a Ni^++ or glutathione columns; His; T7 tag; made in house; host or cells: E. coli BL21(DE3)
T3 sequence (Q9H6E5 1-874 D66G): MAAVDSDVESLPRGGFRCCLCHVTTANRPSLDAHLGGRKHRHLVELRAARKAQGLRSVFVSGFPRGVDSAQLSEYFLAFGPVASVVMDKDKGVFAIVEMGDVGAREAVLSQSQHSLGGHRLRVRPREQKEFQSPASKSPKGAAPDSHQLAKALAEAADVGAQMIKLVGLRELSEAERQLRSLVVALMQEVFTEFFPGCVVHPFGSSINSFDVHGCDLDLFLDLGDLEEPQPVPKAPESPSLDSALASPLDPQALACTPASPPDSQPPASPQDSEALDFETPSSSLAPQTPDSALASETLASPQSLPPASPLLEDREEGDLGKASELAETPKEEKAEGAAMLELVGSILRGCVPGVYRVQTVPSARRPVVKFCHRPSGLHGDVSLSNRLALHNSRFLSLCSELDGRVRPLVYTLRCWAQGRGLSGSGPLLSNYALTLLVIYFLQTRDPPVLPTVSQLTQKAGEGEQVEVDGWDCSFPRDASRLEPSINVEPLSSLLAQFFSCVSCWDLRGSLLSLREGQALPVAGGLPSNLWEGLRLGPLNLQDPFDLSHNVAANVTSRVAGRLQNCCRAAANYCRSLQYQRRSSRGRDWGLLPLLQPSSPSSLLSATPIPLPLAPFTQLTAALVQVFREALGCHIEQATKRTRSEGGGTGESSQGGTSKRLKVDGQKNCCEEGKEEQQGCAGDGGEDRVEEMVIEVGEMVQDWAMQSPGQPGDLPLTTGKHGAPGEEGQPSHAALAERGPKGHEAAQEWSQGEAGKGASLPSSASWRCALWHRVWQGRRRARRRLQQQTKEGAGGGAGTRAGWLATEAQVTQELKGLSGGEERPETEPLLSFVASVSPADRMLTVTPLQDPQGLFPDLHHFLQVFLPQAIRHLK


Experiments:
[1] = biological target: Star-PAP complex-associated kinase activity (CKI); settings: printed beside inhibitor name/vendor and in FIG. 23 legend; inhibitors used at 0.1-100 μM on FLAG-Star-PAP complex; cited from earlier work
[2] = tested on: T4, Star-PAP complex-associated kinase activity (CKI); test: in vitro protein kinase assay of purified FLAG-Star-PAP complex: phosphorylation of Star-PAP by the complex-associated kinase activity; type: biochemical, Human; settings: for phosphorylation of Star-PAP by the complex-associated kinase activity: inhibitor 0.1-100 μM, 45 minutes on ice before ATP
T4 construct: other: PI4,5P2 micelles, 12.5-100 μM; phosphorylation of Star-PAP by the complex-associated kinase activity; Flag-Star-PAP and FLAG-PAPα were expressed in HEK 293 cells and purified on anti-FLAG M2 resin
Description: Synthetic PI4,5P2 (Echelon Biosciences Inc.) was resuspended in 50 mM Tris-HCL pH 7.9 at 2.5 mM and subjected to bath sonication to form micelles and used at final concentration of 12.5-100 μM.
The kinase assays were performed as described above in section 8 for the Star-PAP complexes. Except for inhibitor studies, all reaction components except ATP were incubated with inhibitors for 45 minutes on ice prior to starting the assay.

HO-1 mRNA = test: quantitative real-time PCR of HO-1 mRNA in HEK 293 cells; settings: HEK 293 cells pretreated with CKI inhibitor (IC261 50 μM, CKI-7 250 μM, 2.5 h)
CKIα = biological target: T1, CKIα; test: in vitro phosphorylation of heat inactivated FLAG-Star-PAP by purified FLAG-CKIα; type: biochemical; settings: 50 μM
Description: Flag-Star-PAP and FLAG-PAPα were expressed in HEK 293 cells and purified on anti-FLAG M2 resin. Purified PAP complexes were subject to an in vitro protein kinase assay as follows. Protein kinase assays were performed in 1× kinase buffer (50 mM Tris-HCl pH 7.5, 10 mM MgCl2 and 0.5 mM EGTA). Assays were initiated by the addition of 10 μM ATP and 5 μCi γ^32P ATP to the reaction mix. Substrates included 100 μg/ml of the generic protein kinase substrates myelin basic protein (MBP) or casein. Heat inactivation of the endogenous kinase activity in the Star-PAP complex was destroyed by heating for 15 minutes at 65° C. The Star-PAP purified complex contained protein kinase activity toward both MBP and casein while the PAPα complex contained almost no detectable protein kinase activity (FIG. 19).
Casein Kinase Iα (CKIα), is a protein kinase found in nuclear speckles; moreover, CKIα activity is inhibited by PI4,5P2. […] FLAG proteins were expressed and purified as follows. Human Star-PAP and rat CKIα cDNAs were cloned in to the pFLAG-1 mammalian expression vector (Sigma). […]
Before the phosphorylation assay, endogenous kinase activity in the FLAG complex was destroyed by heat inactivation; no detectable phosphorylation activity was detected after heat inactivation. […]

Star-PAP complex = biological target: T2, Star-PAP complex; test: PAP assay with Star-PAP complex purified from stably expressing HEK-293 cells treated with tBHQ; type: cell-based
Excerpt: Treatment of cells with tBHQ caused a large increase in Star-PAP complex activity for the initiation of polyadenylation. […] PI4,5P2 produced by PIPKIα in the complex may then control the processivity of Star-PAP, resulting in a lengthened poly(A) tail. In this manner Star-PAP may respond to oxidative stress signals, and potential other signals, to efficiently regulate the 3′ end formation and polyadenylation by the Star-PAP complex.

Star-PAP = biological target: T3, Star-PAP; test: in vitro poly(A) polymerase assay with Star-PAP; type: biochemical
Excerpt: The poly(A) polymerase activity of PIP-PAPs such as Star-PAP, natural or artificial variants, homologues or fragments thereof may be tested by methods known in the art. (See e.g., Kyriakopoulou et al., (2001) J Biol Chem, 276:33504-11).
(§1) As another example, a specific 45 nt RNA oligonucleotide (UAGGGA)5A15 (SEQ ID NO: 22) was designed to serve as an RNA substrate in the poly(A) polymerase assay.
Because Star-PAP associates with the PI4,5P2 generating enzyme PIPKIα; the effect of exogenous phosphoinositides on the in vitro poly(A) polymerase activity of Star-PAP was evaluated. Star-PAP was incubated in the presence of various phosphoinositides (PI, PI3P, PI4P, PI5P, PI3,4P2, PI3,5P2, PI4,5P2 and PI3,4,5P3) or buffer only as a control. Following a brief incubation period the remaining components of the assay were added and allowed to react. In the absence of any phosphoinositide species, Star-PAP was able to extend an RNA primer to generate a modest poly(A) tail. In the presence of PI4,5P2 the incorporation of ATP into poly(A) tails was enhanced. […] This effect was specific for PI4,5P2 as all other inositol phospholipids assayed had no effect on Star-PAP activity in this assay.

[3] = biological target: yeast canonical poly(A) polymerase (Saccharomyces cerevisiae, UniProt P29468); test: in vitro poly(A) polymerase assay with yeast canonical poly(A) polymerase control; type: biochemical; settings: (UAGGGA)5A15 primer
Excerpt: as §1

PAPα = PAPα (Homo sapiens, UniProt P51003); test: in vitro poly(A) polymerase assay with PAPα; type: biochemical; settings: 50 μM inositol phospholipid micelles
Chain of PAPα (P51003 whole entry): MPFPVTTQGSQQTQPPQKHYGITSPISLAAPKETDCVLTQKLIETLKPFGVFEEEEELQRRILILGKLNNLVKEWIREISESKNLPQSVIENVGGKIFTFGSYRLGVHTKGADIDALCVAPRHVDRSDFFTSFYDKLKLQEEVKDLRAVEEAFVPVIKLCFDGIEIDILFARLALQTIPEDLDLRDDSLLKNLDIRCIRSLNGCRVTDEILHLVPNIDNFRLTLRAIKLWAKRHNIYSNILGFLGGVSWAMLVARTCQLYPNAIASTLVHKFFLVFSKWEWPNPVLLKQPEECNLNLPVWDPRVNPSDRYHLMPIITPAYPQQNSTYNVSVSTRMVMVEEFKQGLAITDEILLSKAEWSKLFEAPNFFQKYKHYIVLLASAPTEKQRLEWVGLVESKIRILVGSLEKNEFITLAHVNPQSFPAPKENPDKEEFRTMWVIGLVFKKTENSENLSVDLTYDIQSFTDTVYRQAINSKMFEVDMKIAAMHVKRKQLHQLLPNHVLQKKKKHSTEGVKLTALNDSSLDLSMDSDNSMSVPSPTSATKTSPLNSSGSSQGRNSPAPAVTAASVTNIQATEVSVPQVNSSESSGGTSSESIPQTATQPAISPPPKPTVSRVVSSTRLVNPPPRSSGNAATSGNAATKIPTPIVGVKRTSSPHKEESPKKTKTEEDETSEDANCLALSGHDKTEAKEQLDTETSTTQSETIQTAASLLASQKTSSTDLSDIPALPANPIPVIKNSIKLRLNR

Chain of yeast canonical poly(A) polymerase (P29468 whole entry): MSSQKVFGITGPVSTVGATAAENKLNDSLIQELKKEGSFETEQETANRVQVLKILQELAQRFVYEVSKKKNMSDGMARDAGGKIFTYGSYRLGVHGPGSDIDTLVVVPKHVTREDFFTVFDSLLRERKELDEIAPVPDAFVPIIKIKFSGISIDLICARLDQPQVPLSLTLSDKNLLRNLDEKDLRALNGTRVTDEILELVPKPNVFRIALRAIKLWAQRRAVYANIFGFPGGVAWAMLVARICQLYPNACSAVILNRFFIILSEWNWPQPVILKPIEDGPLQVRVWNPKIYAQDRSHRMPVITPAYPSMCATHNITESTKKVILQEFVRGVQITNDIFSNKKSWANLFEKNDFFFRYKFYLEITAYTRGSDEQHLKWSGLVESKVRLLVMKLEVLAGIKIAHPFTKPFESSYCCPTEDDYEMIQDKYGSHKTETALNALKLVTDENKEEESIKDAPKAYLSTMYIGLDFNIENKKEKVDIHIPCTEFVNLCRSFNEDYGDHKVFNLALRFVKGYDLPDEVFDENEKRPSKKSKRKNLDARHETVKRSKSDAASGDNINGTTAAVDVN

| Molecule | IC50 [1] | phosphorylation of Star-PAP by the complex-associated kinase activity [2] | basal levels of HO-1 mRNA (HO-1 mRNA) | phosphorylation of Star-PAP by CKIα (CKIα) | other results |
| --- | --- | --- | --- | --- | --- |
| NCCNS(=O)(=O)c1ccc(Cl)c2ccncc12 [CKI-7] | ~6 µM | block the phosphorylation of Star-PAP by the complex-associated kinase activity in a dose dependent fashion | reduce HO-1 | – | – |
| COc1cc(OC)c(C=C2C(O)=Nc3ccccc32)c(OC)c1 [IC261] | 11 µM | block the phosphorylation of Star-PAP by the complex-associated kinase activity in a dose dependent fashion | reduce HO-1 | blocked; also recorded: can block CKIα phosphorylation of Star-PAP | – |
| CC(C)(C)c1cc(O)ccc1O [tBHQ, tert-butylhydroquinone] | – | – | – | – | increase in enzymatic activity of Star-PAP complex over Star-PAP from control cells (Star-PAP complex; cells treated with 100 μM tBHQ): more than 15 fold |
| cordycepin triphosphate | – | – | – | – | Star-PAP poly(A) polymerase activity with chain terminator (Star-PAP; (UAGGGA)5A15 primer): inhibited in a dose dependent fashion; yeast canonical poly(A) polymerase activity with chain terminator [3]: inhibited in a dose dependent fashion |
| phosphatidylinositol-4,5-bisphosphate [PI4,5P2] | – | – | – | blocked; also recorded: can block CKIα phosphorylation of Star-PAP | effect of phosphoinositide on Star-PAP poly(A) polymerase activity (incorporation of ATP into poly(A) tails) (Star-PAP; 50 μM inositol phospholipid micelles): enhanced; concentration at which phosphorylation of FLAG-Star-PAP was inhibited (as low as) ([2]; PI4,5P2 micelles, 12.5-100 μM): 12.5 µM; effect of phosphoinositide on PAPα activity (PAPα): no phosphoinositides tested, including PI4,5P2 stimulated the activity of PAPα; Star-PAP processivity (length of the poly(A) tails) (Star-PAP complex; Star-PAP isolated from tBHQ-treated cells, time course): stimulated Star-PAP processivity, increasing the length of the poly(A) tails |
| Star-PAP: novel PIP-regulated poly(A) polymerase, SEQ ID NO: 2 (protein, listed as Homo sapiens) MAAVDSDVESLPRGGFRCCLCHVTTANRPSLDAHLGGRKHRHLVELRAARKAQGLRSVFVSGFPRGVDSAQLSEYFLAFGPVASVVMDKDKGVFAIVEMGDVGAREAVLSQSQHSLGGHRLRVRPREQKEFQSPASKSPKGAAPDSHQLAKALAEAADVGAQMIKLVGLRELSEAERQLRSLVVALMQEVFTEFFPGCVVHPFGSSINSFDVHGCDLDLFLDLGDLEEPQPVPKAPESPSLDSALASPLDPQALACTPASPPDSQPPASPQDSEALDFETPSSSLAPQTPDSALASETLASPQSLPPASPLLEDREEGDLGKASELAETPKEEKAEGAAMLELVGSILRGCVPGVYRVQTVPSARRPVVKFCHRPSGLHGDVSLSNRLALHNSRFLSLCSELDGRVRPLVYTLRCWAQGRGLSGSGPLLSNYALTLLVIYFLQTRDPPVLPTVSQLTQKAGEGEQVEVDGWDCSFPRDASRLEPSINVEPLSSLLAQFFSCVSCWDLRGSLLSLREGQALPVAGGLPSNLWEGLRLGPLNLQDPFDLSHNVAANVTSRVAGRLQNCCRAAANYCRSLQYQRRSSRGRDWGLLPLLQPSSPSSLLSATPIPLPLAPFTQLTAALVQVFREALGCHIEQATKRTRSEGGGTGESSQGGTSKRLKVDGQKNCCEEGKEEQQGCAGDGGEDRVEEMVIEVGEMVQDWAMQSPGQPGDLPLTTGKHGAPGEEGQPSHAALAERGPKGHEAAQEWSQGEAGKGASLPSSASWRCALWHRVWQGRRRARRRLQQQTKEGAGGGAGTRAGWLATEAQVTQELKGLSGGEERPETEPLLSFVASVSPADRMLTVTPLQDPQGLFPDLHHFLQVFLPQAIRHLK | – | – | – | – | specific poly(A) polymerase activity relative to canonical PAPα (Star-PAP; side-by-side with PAPα): 1.3 fold |

From patent US8088574B2, “Poly(A) polymerase” (Wisconsin Alumni Research Foundation, priority 2007, dated 2012)
